In patent US4156731A, “Heterocyclic oxime compounds and carbamoyloxime derivatives” (priority 1976, dated 1979):

Tests used:
[1] = tested on: bean aphid (Aphis fabae Scop.); assay: Bean Aphid Foliage Spray Test; format: in vivo; set-up: key: A: Excellent control; B: Partial control; C: No control; conditions: 500 ppm foliage spray, 24 hour holding period
Protocol: (§1) Selected species of the new compounds were evaluated to determine their pesticidal activity against mites and certain insects, including anaphid, a caterpillar, a beetle and a fly.
(§2) Suspensions of the test compounds were prepared by dissolving one gram of compound in 50 milliliters of acetone in which had been dissolved 0.1 gram (10 percent of the weight of compound) of an alkylphenoxy polyethoxyethanol surfactant, as an emulsifying or dispersing agent. The resulting solution was mixed into 150 milliliters of water to give roughly 200 milliliters of a suspension containing the compound in finely divided form. The thus-prepared stock suspension contained 0.5 percent by weight of test compound. The test concentrations in parts per million by weight employed in the tests described hereinbelow were obtained by appropriate dilutions of the stock suspension with water. The test procedures were as follows:
Bean Aphid Foliage Spray Test
Adults and nymphal stages of the bean aphid (Aphis fabae Scop.) reared on potted dwarf nasturtium plants at 65°-70° F. and 50-70 per cent relative humidity, constituted the test insects. For testing purposes, the number of aphids per pot was standardized to 100-150 by trimming plants containing excess aphids.
The test compounds were formulated by diluting the stock suspension with water to give a suspension containing 500 parts of test compound per million parts of final formulation.
The potted plants (one pot per compound tested) infested with 100-150 aphids, were placed on a revolving turntable and sprayed with 100-110 milliliters of test compound formulation by use of a DeVilbiss spray gun set at 40 psig. air pressure. This application, which lasted 25 seconds, was sufficient to wet the plants to run-off. As a control, 100-110 milliliters of a water-acetone-emulsifier solution containing no test compound were also sprayed on infested plants. After spraying, the pots were placed on their sides on a sheet of white standard mimeograph paper which had been previously ruled to facilitate counting. Temperature and humidity in the test room during the 24 hour holding period were 65°-70° F. and 50-70 per cent, respectively. Aphids which fell into the paper and were unable to remain standing after being uprighted were considered dead. Aphids remaining on the plants wre observed closely for movement and those which were unable to move the length of the body upon stimulator by prodding were considered dead. Per cent mortality was recorded for various concentration levels.
(§3) In these tests the pesticidal activity of the compounds against aphid, mite, Southern Armyworm, Mexican Bean Beetle, and house fly was rated as follows: […]

[2] = tested on: two spotted mite (Tetranychus urticae Koch); assay: Mite Foliage Spray Test; format: in vivo; set-up: key: A: Excellent control; B: Partial control; C: No control; conditions: 500 ppm foliage spray, six days
Protocol: as §1, §2
Adults and nymphal stages of the two spotted mite (Tetranychus urticae Koch), reared on Tendergreen bean plants at 80±5 per cent relative humidity, were the test organisms. Infested leaves from a stock culture were placed on the primary leaves of two bean plants six to eight inches in height, growing in a two-and-a-half inch clay pot. 150-200 mites, a sufficient number for testing, transferred from the excised leaves to the fresh plants in a period of twenty four hours. Following the twenty four hour transfer period, the excised leaves were removed from the infested plants. The test compounds were formulated by diluting the stock suspension with water to give a suspension with water to give a suspension containing 500 parts of test compound per million parts of final formulation. The potted plants (one pot per compound) were placed on a revolving turntable and sprayed with 100-110 milliliters of test compound formulation by use of a DeVilbiss spray gun set at 40 psig. air pressure. This application, which lasted for 25 seconds, was sufficient to wet the plants to run-off. As a control, 100-110 milliliters of a water solution containing acetone and emulsifier in the same concentrations as the test compound formulation, but containing no test compound, were also sprayed on infested plants. The sprayed plants were held at 80±5 per cent relative humidity for six days, after which a mortality count of motile forms were made. Microscopic examination for motile forms was made on the leaves of the test plants. Any individual which was capable of locomotion upon prodding, was considered living.
as §3

[3] = tested on: southern armyworm (Prodenia Eridania, (Cram.)); assay: Southern Armyworm Leaf Spray Test; format: in vivo; set-up: key: A: Excellent control; B: Partial control; C: No control; conditions: larvae, 500 ppm leaf spray, three days
Protocol: as §1, §2
Southern Armyworm Leaf Spray Test
Larvae of the southern armyworm (Prodenia Eridania, (Cram.), reared on Tendergreen bean plants at a temperature of 80°±5° F. and a relative humidity of 50±5 per cent, constituted the test insects.
The test compounds were formulated by diluting the stock suspension with water to give a suspension containing 500 parts of test compound per million parts of final formulation. Potted Tendergreen bean plants of standard height and age were placed on a revolving turntable and sprayed with […] of test compound formulation by use of a DeVilbiss spray gun set at 10 psig. air pressure.
This application, which lasted 25 seconds, was sufficient to wet plants to run-off. As a control, 100-110 milliliters of a water-acetone-emulsifier solution containing no test compound were also sprayed on infested plants. When dry, the paired leaves were separated and each one was placed in a 9 centimeter Petric dish lined with moistened filter paper. Five randomly selected larvae were introduced into each dish and the dishes were closed. The closed dishes were labeled and held at 80°-85° F. for three days. Although the larvae could easily consume the whole leaf within twenty-four hours, no more food was added. Larvae which were unable to move the length of the body, even upon stimulation by prodding, were considered dead. Per cent mortality was recorded for various concentration levels.
as §3

[4] = tested on: Mexican bean beetle (Epilachna varivestis, Muls.); assay: Mexican Bean Beetle Leaf Spray Test; format: in vivo; set-up: key: A: Excellent control; B: Partial control; C: No control; conditions: fourth instar larvae, 500 ppm leaf spray, three days
Protocol: as §1, §2
Mexican Bean Beetle Leaf Spray Test
Fourth instar larvae of the Mexican bean beetle (Epilachna varivestis, Muls.), reared on Tendergreen bean plants at a temperature of 80°±5° F. and 50±5 per cent relative humidity, were the test insects.
The test compounds were formulated by diluting the stock suspension with water to give a suspension containing 500 parts of test compound per million parts of final formulation. Potted Tendergreen bean plants of standard height and age were placed on a revolving turntable and sprayed with 100-110 milliliters of test compound formulation by use of DeVilbiss spray gun set at 10 psig air pressure. This application, which lasted 25 seconds, was sufficient to wet plants to run-off. As a control, 100-110 milliliters of a water-acetone-emulsifier solution containing no test compound were also sprayed on infested plants. When dry, the paired leaves were separated and each was placed in a 9 centimeter Petri dish lined with moistened filter paper. Five randomly selected larvae were introduced into each dish, and the dishes were closed. The closed dishes were labeled and held at a temperature of […]. for three days. Although the larvae could easily consume the leaf within 24 to 48 hours, no more food was added. Larvae which were unable to move the length of the body, even upon stimulation, were considered dead.
as §3

[5] = tested on: house flies (Musca domestica, L.); assay: Fly Bait Test; format: in vivo; set-up: key: A: Excellent control; B: Partial control; C: No control; conditions: adults, 500 ppm in sugar bait, twenty four hours
Protocol: as §1, §2
Four to six day old adult house flies (Musca domestica, L.) reared according to the specifications of the Chemical Specialities Manufacturing Association (Blue Book, McNair-Dorland Co., NY., 1954; pages 234-244, 261) under controlled conditions of 80°±5° F. and 50±5 per cent relative humidity, were the test insects. The flies were immobilized by anesthetizing with carbon dioxide and twenty five immobilized individuals, males and females, were transferred to a cage consisting of a standard food stainer about five inches in diameter which was inverted over a wrapping-paper-covered surface. The test compounds were formulated by diluting the stock suspension with a 10 per cent (by weight) sugar solution to give a suspension containing 500 parts of test compound per million parts of final formulation, by weight. Ten milliliters of the test formulation were added to a souffle cup containing a one inch square of an absorbent cotton pad. This bait cup was introduced and centered on the blotting paper under the food strainer prior to admitting the anesthetized flies. The caged flies were allowed to feed on the bait for twenty four hours, at a temperature of 80°±5° F. and the relative humidity of 50±5 per cent.
as §3

[6] = Peroral toxicity to mammals (rat); conditions: in vivo, po, mortality rate of 50 percent, read-out: A. O. Rat LD50
Protocol: Certain of these compositions were also evaluated to determine their peroral toxicity to mammals. The animal selected for this experiment was the rat.

SMILES | Bean Aphid pesticidal activity rating [1] | Mite pesticidal activity rating [2] | Southern Armyworm pesticidal activity rating [3] | Mexican Bean Beetle pesticidal activity rating [4] | House-Fly pesticidal activity rating [5] | LD50 [6] [mg/kg]
CN(SC(Cl)(Cl)Cl)C(=O)ON=C1SC(=C(C#N)C#N)SC1(C)C [LXIII] | A | C | C | A | C | 538
CN(SSc1ccc(C(C)(C)C)cc1)C(=O)ON=C1SC(=C(C#N)C#N)SC1(C)C [LXXII] | A | C | C | A | C | –
CNC(=O)ON=C1SC(=C(C#N)C#N)SC1(C)C [LXII] | C | C | C | C | C | –
CNC(=O)ON=C1SC(=CC(C)=O)SC1(C)C [LXVIII] | A | C | A | A | A | –
CNC(=O)ON=C1SC(=S)SC1(C)C [LXXI] | A | B | B | A | B | –
CN(SC(Cl)(Cl)Cl)C(=O)ON=C1SC(=NC(C)(C)C)SC1(C)C [LI] | A | B | C | A | A | –
CN(C)N=C1SC(=NOC(=O)N(C)SC(Cl)(Cl)Cl)C(C)(C)S1 [LVI] | A | A | A | A | A | –
CC(C)C(=O)C(C)(C)SSN(C)C(=O)ON=C1SC(=C(C#N)C#N)SC1(C)C [LXXV] | A | A | B | B | C | –
